Measurements taken from patent US20190119284A1, “ErbB Inhibitors and Uses Thereof” (The Regents of the University of California, priority 2016, published 2019).

Assays:
[1] = system: Ba/F3 cell line panel (HER2YF/HER3); assay: 48 h proliferation of the Ba/F3 cell line panel (CellTiter-Glo); assay type: cell-based; settings: 48 h proliferation curves
Experimental: FIGS. 3A-3D. Design and execution of a high-throughput screen identifies a novel HER2/HER3 inhibitor. FIG. 3A: 2YF/3wt cells were incubated in the presence or absence of NRG for 48 h and proliferation was assessed by CellTiter-Glo (mean±SD, n=1). […] FIG. 3C: Structure and proliferation curves for hit compound 1 (also referred herein as compound 185) against the Ba/F3 cell line panel (mean±SD, n=3), FIG. 3D: Structure and proliferation curves for compound 2 (also referred to herein as compound 55A) against the panel of Ba/F3 cell lines (mean±SD, n=3).
(§1) FIGS. 4A-4F. Compound 2 is a selective Type I inhibitor for HER2. […] FIG. 4B: Thermal stabilization of the HER3 kinase domain by either compound 2 or ATP as determined by Thermofluor (mean±SD, n=3). FIGS. 4C-4D: The crystal structure of either erlotinib (FIG. 4C) or 2 (FIG. 4D) bound to EGFR V924R. The kinase domain in complex with compound 2 has been stabilized in the active confirmation by drug binding, despite the mutation—as evidenced by the ordered extension of the activation loop and the inward positioning of the α-C helix.
(§2) FIGS. 5A-5D. […] FIG. 5A: Chemical structure of compound 3 (also referred to herein as compound 178). FIG. 5B: Proliferation curves for compound 3 against the Ba/F3 cell line panel (mean±SD, n=3). […] FIG. 5D: The same assay in FIG. 2A was performed with compound 3 in SK-BR-3 cells.
FIG. 10. […]

[2] = molecular target: mutationally activated forms of EGFR (Homo sapiens, UniProt P00533, DEL746-750); assay: EGFR phosphosite signaling in HCC 827 cells; assay type: cell-based; parameters: endogenous in cells; host or cells: HCC 827 (A1); settings: concentration giving near complete inhibition
Chain of mutationally activated forms of EGFR (P00533 with tags, fused parts or gaps DEL746-750): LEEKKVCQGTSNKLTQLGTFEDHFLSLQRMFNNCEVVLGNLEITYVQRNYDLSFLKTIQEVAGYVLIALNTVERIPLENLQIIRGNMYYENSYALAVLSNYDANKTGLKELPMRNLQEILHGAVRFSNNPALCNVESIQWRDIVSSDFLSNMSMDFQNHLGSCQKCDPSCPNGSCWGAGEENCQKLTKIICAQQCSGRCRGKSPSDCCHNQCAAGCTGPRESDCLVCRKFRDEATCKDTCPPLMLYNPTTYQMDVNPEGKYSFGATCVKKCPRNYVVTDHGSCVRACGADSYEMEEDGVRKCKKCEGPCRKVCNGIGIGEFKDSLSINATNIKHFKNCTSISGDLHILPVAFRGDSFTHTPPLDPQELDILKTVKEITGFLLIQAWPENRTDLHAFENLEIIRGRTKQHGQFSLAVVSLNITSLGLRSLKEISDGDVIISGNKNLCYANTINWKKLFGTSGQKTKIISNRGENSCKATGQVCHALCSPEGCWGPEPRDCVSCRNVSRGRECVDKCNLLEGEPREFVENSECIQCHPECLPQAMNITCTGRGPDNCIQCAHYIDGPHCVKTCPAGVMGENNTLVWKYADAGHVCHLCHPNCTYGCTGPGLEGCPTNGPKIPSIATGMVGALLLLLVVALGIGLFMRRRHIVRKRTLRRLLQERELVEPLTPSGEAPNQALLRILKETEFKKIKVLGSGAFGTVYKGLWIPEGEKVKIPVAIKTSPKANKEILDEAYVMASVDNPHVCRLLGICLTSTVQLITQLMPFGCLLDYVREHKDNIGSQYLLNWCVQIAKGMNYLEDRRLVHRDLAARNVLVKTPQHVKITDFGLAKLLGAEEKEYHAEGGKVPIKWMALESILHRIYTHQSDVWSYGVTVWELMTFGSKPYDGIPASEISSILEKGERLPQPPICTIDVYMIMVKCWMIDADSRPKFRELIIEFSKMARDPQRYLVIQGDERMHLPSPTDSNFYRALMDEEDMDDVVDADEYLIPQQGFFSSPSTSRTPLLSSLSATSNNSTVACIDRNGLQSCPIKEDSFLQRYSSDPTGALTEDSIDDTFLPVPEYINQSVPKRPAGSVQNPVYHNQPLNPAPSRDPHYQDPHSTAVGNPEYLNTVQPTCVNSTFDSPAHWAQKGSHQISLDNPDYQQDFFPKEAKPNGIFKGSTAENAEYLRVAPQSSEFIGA

CAMK4 = CAMK4 (Homo sapiens, UniProt Q16566); assay: Nanosyn in vitro kinase profiling: CAMK4; assay type: biochemical; settings: compound at 1 μM
Chain of CAMK4 (Q16566 whole entry, species assumed): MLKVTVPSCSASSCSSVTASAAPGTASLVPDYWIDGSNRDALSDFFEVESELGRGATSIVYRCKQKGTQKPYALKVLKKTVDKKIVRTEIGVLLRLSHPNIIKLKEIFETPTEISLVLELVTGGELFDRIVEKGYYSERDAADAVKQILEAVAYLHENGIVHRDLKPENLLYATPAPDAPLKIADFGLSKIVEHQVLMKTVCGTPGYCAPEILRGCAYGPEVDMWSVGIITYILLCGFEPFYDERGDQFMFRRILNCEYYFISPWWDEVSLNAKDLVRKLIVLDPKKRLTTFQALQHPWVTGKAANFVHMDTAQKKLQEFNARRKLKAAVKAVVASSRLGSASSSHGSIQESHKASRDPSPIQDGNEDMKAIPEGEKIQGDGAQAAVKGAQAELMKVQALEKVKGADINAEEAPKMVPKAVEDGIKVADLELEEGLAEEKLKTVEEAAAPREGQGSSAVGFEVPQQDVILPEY

MST2 = MST2 (Homo sapiens, UniProt Q13188); assay: Nanosyn in vitro kinase profiling: MST2; assay type: biochemical; settings: compound at 1 μM
Chain of MST2 (Q13188 whole entry, species assumed): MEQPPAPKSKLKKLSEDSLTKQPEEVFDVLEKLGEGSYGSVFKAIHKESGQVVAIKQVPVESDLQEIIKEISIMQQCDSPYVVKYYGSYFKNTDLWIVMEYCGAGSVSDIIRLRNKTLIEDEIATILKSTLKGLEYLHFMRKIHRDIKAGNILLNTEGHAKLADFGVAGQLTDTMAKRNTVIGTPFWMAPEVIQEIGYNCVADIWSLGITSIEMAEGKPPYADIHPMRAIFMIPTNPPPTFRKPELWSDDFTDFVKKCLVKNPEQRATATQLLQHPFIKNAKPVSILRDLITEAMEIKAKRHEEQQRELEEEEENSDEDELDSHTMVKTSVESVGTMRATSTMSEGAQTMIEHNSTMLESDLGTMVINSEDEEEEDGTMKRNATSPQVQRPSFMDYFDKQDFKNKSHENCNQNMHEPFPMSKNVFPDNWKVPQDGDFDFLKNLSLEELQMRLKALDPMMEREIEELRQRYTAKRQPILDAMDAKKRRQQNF

MEK1 = MEK1 (Homo sapiens, UniProt Q02750); assay: Nanosyn in vitro kinase profiling: MEK1; assay type: biochemical; settings: compound at 1 μM
[3] = molecular target: T1, 2YF-VC/3wt + NRG Ba/F3 cells (Homo sapiens, UniProt P04626, DELINS776-776VC/Y1005F/Y1023F/Y1112F/Y1127F/Y1139F/Y1196F/Y1221F/Y1222F/Y1248F, cells depend on it); assay: Ba/F3 proliferation assay, 2YF-VC/3wt + NRG; assay type: cell-based; settings: Table 4; ± S.D., n = 2; read-out: IC50, 2YF-VC/3wt + NRG
T1 construct: reported HER2 oncogenic mutants in the HER2YF construct
T1 sequence (P04626 with tags, fused parts or gaps with the stated changes): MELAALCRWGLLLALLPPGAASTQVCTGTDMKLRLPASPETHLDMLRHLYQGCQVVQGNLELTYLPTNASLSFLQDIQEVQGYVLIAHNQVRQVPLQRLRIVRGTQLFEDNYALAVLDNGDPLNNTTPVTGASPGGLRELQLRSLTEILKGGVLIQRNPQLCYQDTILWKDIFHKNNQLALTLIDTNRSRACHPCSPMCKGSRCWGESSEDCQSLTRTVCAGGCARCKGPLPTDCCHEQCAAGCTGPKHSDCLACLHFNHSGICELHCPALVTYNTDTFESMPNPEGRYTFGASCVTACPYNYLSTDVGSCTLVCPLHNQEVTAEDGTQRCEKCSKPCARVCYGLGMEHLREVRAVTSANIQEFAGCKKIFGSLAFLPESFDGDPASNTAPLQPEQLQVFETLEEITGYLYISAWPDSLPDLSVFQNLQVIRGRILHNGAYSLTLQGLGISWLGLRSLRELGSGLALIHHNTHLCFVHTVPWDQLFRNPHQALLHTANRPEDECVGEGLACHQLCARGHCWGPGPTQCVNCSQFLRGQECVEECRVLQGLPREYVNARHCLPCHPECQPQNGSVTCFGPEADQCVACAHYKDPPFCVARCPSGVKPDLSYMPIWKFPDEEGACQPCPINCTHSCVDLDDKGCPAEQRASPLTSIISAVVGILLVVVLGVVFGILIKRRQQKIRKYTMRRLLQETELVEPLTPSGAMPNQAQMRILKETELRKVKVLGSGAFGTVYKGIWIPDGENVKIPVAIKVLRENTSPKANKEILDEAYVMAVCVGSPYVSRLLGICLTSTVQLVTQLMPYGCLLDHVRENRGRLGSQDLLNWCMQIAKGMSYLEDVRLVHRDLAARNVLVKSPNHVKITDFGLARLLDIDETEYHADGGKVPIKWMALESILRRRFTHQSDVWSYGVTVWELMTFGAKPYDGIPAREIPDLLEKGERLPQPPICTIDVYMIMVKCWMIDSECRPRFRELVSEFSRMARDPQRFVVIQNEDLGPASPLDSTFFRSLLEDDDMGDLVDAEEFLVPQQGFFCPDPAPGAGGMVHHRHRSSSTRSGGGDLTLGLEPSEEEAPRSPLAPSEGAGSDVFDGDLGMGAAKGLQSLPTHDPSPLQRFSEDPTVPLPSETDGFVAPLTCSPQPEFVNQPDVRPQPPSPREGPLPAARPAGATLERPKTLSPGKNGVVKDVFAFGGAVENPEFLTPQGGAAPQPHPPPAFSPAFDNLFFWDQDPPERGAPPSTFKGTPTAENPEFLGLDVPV
Experimental: For the 2YF/3wt cells, the parental cells were first transduced with HER3 according to the protocol above and were then spun down at 500×g for 5 min and re-suspended in media supplemented with 10 ng/mL IL-3 and 3 μg/mL puromycin (Invitrogen). Cells were maintained in these conditions for seven days, passaging as required. After seven days the cells were spun down, washed with fresh media, and then used for a subsequent round of transduction according to the protocol above with HER2YF virus. […] The cells were maintained in these conditions for seven days, passaging as required. After seven days the cells were spun down, washed with fresh media, and then suspended in media supplemented with 10 ng/mL of NRG. Cells were maintained in these conditions for seven days to select for a NRG dependent population of 2YF/3wt Ba/F3 cells that were then maintained as described above. The same protocol was used for the 2YF-L755S/3wt, 2YF-YVMA/3wt, and 2YF-VC/3wt cell lines using the indicated constructs.
Proliferation Assays. […] The following day media was changed to fresh media that contained either DMSO or the indicated concentration of drug plus NRG (50 ng/mL final concentration) as indicated. […] For all normalized assays, proliferation was normalized to the DMSO control condition. […]

FAK = FAK (Homo sapiens, UniProt Q05397); assay: Nanosyn in vitro kinase profiling: FAK; assay type: biochemical; settings: compound at 1 μM
Chain of FAK (Q05397 whole entry, species assumed): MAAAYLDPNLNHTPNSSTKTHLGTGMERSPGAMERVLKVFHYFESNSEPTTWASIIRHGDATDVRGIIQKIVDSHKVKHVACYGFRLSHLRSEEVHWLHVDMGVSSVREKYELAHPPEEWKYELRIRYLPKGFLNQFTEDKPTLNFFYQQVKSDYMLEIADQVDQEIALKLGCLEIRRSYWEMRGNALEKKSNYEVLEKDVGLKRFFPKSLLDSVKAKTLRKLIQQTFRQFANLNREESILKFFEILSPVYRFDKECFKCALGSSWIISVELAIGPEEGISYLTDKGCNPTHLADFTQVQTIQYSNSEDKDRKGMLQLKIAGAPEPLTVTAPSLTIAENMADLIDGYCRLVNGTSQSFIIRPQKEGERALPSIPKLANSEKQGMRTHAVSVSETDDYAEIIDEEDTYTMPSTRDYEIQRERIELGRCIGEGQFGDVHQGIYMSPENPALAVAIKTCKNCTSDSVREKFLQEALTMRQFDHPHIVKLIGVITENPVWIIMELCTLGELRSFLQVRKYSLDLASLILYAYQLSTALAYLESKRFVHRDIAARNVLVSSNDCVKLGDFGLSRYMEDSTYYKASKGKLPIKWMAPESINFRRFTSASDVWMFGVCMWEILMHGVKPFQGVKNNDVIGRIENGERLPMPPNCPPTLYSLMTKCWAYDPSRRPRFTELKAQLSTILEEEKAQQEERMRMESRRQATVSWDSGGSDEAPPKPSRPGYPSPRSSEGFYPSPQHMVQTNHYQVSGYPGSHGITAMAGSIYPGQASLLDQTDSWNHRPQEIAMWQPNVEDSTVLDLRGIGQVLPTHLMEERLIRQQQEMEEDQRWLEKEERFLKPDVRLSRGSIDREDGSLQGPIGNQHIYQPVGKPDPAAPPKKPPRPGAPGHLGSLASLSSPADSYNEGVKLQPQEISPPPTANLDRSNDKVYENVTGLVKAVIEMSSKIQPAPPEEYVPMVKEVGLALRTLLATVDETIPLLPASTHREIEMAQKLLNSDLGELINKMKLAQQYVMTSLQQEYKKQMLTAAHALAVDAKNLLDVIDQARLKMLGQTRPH

BT-474 cells = assay: 72 h proliferation of BT-474 cells in the presence or absence of NRG; assay type: cell-based; settings: BT-474, 72 h dose response +/- NRG
Experimental: FIGS. 1A-1E. NRG rescues HER2 over-expressing cancer cells from HER2 inhibitors. […] FIG 1B: Same experiment as depicted in FIG. 1A, but with the inhibitor TAK-285. FIG. 1C: The ability of NRG to rescue SK-BR-3 and BT-474 cell proliferation from HER2 inhibitors is dose dependent. Cells were treated with 1 μM of the indicated inhibitor in the presence of varying concentrations of NRG, and proliferation was read out after 72 h (mean±SD, n=3). […] FIG. 1E: Cartoon schematic of the EGFR family kinase domain asymmetric dimer. The C-terminal domain of the ‘activator’ kinase (right) interacts with the N-terminal portion of the ‘receiver’ kinase (left). This interaction stabilizes the active conformation of the receiver kinase identified by the ‘in’ conformation of the receiver kinase's α-C helix and the ordered extension of the activation loop.
as §2

[4] = system: wt or T787M HER3 kinase domain; assay: Thermofluor stabilization of HER3 kinase domain; assay type: binding; settings: HER3 T787M vs wt kinase domain
From the text: as §1
FIGS. 12A-12B. […] FIG. 12A. […] FIG. 12B. Stabilization of either wt or T787M HER3 kinase domain by compound 2 compared to DMSO as determined by thermofluor (mean value±SD, n=2).

AKT1 = AKT1 (Homo sapiens, UniProt P31749); assay: Nanosyn in vitro kinase profiling: AKT1; assay type: biochemical
Chain of AKT1 (P31749 whole entry): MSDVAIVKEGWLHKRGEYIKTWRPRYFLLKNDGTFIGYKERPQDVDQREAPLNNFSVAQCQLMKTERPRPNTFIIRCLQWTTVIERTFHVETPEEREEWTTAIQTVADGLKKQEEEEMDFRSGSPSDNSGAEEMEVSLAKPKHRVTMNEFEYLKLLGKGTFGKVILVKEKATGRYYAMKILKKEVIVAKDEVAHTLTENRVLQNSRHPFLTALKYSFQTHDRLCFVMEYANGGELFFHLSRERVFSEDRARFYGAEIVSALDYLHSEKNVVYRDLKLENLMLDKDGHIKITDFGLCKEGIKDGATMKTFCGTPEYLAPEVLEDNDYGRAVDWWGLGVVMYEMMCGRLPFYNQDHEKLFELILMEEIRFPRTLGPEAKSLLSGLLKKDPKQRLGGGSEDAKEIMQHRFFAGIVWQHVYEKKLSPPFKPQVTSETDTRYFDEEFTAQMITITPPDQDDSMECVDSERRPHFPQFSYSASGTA
Experimental: This was confirmed by in vitro profiling against a panel of kinases, with compound 2 only showing potent inhibition of EGFR and Ab1 (Table 2).
In vitro Kinome Screen. In vitro profiling of compound 2 at 100 nM was conducted by Nanosyn.

Compound: CS(=O)(=O)CCNCc1ccc(-c2ccc3ncnc(Nc4ccc(OCc5cccc(F)c5)c(Cl)c4)c3c2)o1 [lapatinib]
- level of pathway inhibition distinguished by the Ba/F3 panel [1]: specifically inhibit signaling at the HER2/HER3 level

Compound: COc1ccc(-c2ccoc2)cc1Nc1ncnc2[nH]cc(-c3cc[nH]n3)c12 [compound 3, N-(5-(furan-3-yl)-2-methoxyphenyl)-5-(1H-pyrazol-3-yl)-7H-pyrrolo[2,3-d]pyrimidin-4-amine]
- near complete inhibition of multiple phosphosites on EGFR [2]: less than 10 nM
- inhibition at 1 µM (CAMK4): 0%
- inhibition at 1 µM (MST2): 84%
- inhibition at 1 µM (MEK1): 66%
- GI50 [3]: 7.7 ± 1 nM
- inhibition at 1 µM (FAK): -10%
- sensitivity of proliferation inhibition to NRG (BT-474 cells): insensitive to the presence of NRG

Compound: COc1ccc(-c2ccco2)cc1Nc1ncnc2[nH]nc(-c3ccco3)c12 [compound 2, 3-(furan-2-yl)-N-(5-(furan-2-yl)-2-methoxyphenyl)-1H-pyrazolo[3,4-d]pyrimidin-4-amine]
- effect of gatekeeper mutation on binding affinity [4]: reduces the binding affinity
- inhibition at 0.1 µM (AKT1; compound at 100 nM): 14.3%
- inhibition at 1 µM (AKT1; compound at 1 μM): 33%
